Results on 70 compounds are retold here after the OPERA property sets (Mansouri et al. 2018).

Values after ≈ are worked out from the molar mass of the structure shown.

For the first data set the following is noted: 20 °C.
By solubility is commonly meant the concentration that dissolves in the medium under given conditions. A high value points to a readily soluble substance. For the compound `O=C(OCCO)c1ccccc1O`, the solubility came out at 69.7 mM (≈ 12700 µg/mL).

Compound `CC1CCC2(CCC(C)O2)O1` (stereo not given) yielded a solubility of 356 mM (≈ 55600 µg/mL).

As to `OCC1=C[C@@H](O)[C@@H]2C=CO[C@@H](OC3OC(CO)C(O)C(O)C3O)[C@H]12` (stereo not given in full), the solubility worked out at 1030 mM (≈ 356000 µg/mL).

In turn, `CCCCCCCCOC(=O)c1cc(O)c(O)c(O)c1` gave a solubility of 0.127 mM (≈ 36 µg/mL).

`CCCCC(CCC(=O)O)CC(=O)O` (stereo not given) yielded a solubility of 40 mM (≈ 8100 µg/mL).

Compound `CCC(C#N)(CC)C(=O)NC(N)=O` showed a solubility of 27.3 mM (≈ 5000 µg/mL).

Still in this data set, the particulars now being: 21 °C.
`NC(=S)NCNC(N)=S` gave a solubility of 21.3 mM (≈ 3500 µg/mL).

Compound `CCCCOc1cc(C(=O)NCCN(CC)CC)c2ccccc2n1` yielded a solubility of 0.122 mM (≈ 42 µg/mL).

Still in this data set, the particulars now being: 22 °C.
Turning to `Cc1ccc(N)cc1C`, the solubility came to 31.4 mM (≈ 3800 µg/mL).

Staying with this data set, now noted: 23 °C.
`CCCc1nc(N)c(CC)c(CCC)n1` had a solubility of 3.07 mM (≈ 636 µg/mL).

`NC(=S)NNC(N)=S` yielded a solubility of 16 mM (≈ 2400 µg/mL).

Staying with this data set, now noted: 24 °C.
Compound `c1ccc(CNCCNCc2ccccc2)cc1` yielded a solubility of 16.3 mM (≈ 3930 µg/mL).

As to `O=Cc1cccc(C(=O)O)c1O`, the solubility was 3.61 mM (≈ 600 µg/mL).

Still in this data set, the particulars now being: 25 °C.
As for `CCOC(=O)c1cccnc1`, the solubility is 370 mM (≈ 56000 µg/mL).

Take `O=C(NCCO)c1cc(O)ccc1O`: the solubility amounted to 286 mM (≈ 56400 µg/mL).

Compound `CCCOC(=O)CCOC` yielded a solubility of 219 mM (≈ 32000 µg/mL).

For `CCOc1ccc(NC(C)=O)c(C)c1`, the solubility came to 14.5 mM (≈ 2800 µg/mL).

In the case of `CCCC(C)C(O)CC` (stereo not given), the solubility was 10.9 mM (≈ 1420 µg/mL).

For the compound `O=C(O)C(=O)Nc1ccc(Cl)cc1Cl`, the solubility is 5.29 mM (≈ 1240 µg/mL).

In turn, `CC(C)(CCC(C)(C)CC(=O)O)CC(=O)O` yielded a solubility of 0.738 mM (≈ 170 µg/mL).

`CCCOP(=O)(OCC)OCCC` registered a solubility of 105 mM (≈ 22000 µg/mL).

Regarding `Cc1cc(O)c(Cc2ccccc2)c(C)c1Cl`, the solubility was 0.05 mM (≈ 12.3 µg/mL).

In turn, `O=COCc1ccco1` gave a solubility of 104 mM (≈ 13100 µg/mL).

In turn, `NC(C(=O)O)C(O)C(=O)O` (stereo not given) yielded a solubility of 149 mM (≈ 22200 µg/mL).

The compound `CSCCC(NC(C)=O)C(=O)O` (racemic) displayed a solubility of 1070 mM (≈ 205000 µg/mL).

In turn, `C[C@@H](N)C(C)(C)C` came in with a solubility of 9690 mM (≈ 980000 µg/mL).

Turning to `CN1c2ccccc2C(O)(c2ccccc2)c2ccccc21`, the solubility stood at 0.125 mM (≈ 35.9 µg/mL).

In turn, `Cc1[nH]c(=O)[nH]c(=O)c1CC(=O)O` registered a solubility of 4.89 mM (≈ 900 µg/mL).

As for `CCN(C(N)=O)c1ccccc1C`, the solubility was 617 mM (≈ 110000 µg/mL).

With `CC(C)C1OCC2(CO1)COC(C(C)C)OC2` (stereo not given), the solubility was 0.769 mM (≈ 188 µg/mL).

In turn, `O=C(O)CSCC(=O)O` yielded a solubility of 2660 mM (≈ 400000 µg/mL).

With `C[Si](C)(C)CCCN`, the solubility was 11.2 mM (≈ 1470 µg/mL).

In the case of `CCC(CC)(C(=O)O)C(CC)(CC)C(=O)O`, the solubility is 1.09 mM (≈ 250 µg/mL).

The compound `O=C1OCc2ccc(Br)cc21` gave a solubility of 2.25 mM (≈ 480 µg/mL).

In the case of `CCOP(=O)(OCC)C(Cl)(Cl)Cl`, the solubility worked out at 17.6 mM (≈ 4500 µg/mL).

Compound `CCCOCCC(=O)OCCC` came in with a solubility of 20.7 mM (≈ 3600 µg/mL).

`O=C(O)CCCCc1ccccc1` returned a solubility of 3.42 mM (≈ 610 µg/mL).

In turn, `COc1c(O)ccc(C=O)c1C` displayed a solubility of 42.1 mM (≈ 7000 µg/mL).

`CC(Cl)C(C)(C)O` (stereo not given) gave a solubility of 510 mM (≈ 62500 µg/mL).

`CCOC(=O)CCc1ccccc1` registered a solubility of 1.23 mM (≈ 220 µg/mL).

`CC(=O)OOC(=O)c1ccccc1` came in with a solubility of 3.55 mM (≈ 639 µg/mL).

For `NS(=O)(=O)c1cccc(S(N)(=O)=O)c1`, the solubility is 6.77 mM (≈ 1600 µg/mL).

Compound `CCC1(c2ccccc2)NC(=O)NC1=O` (stereo not given) returned a solubility of 6.76 mM (≈ 1380 µg/mL).

For the compound `CCCCCCNC(=O)c1cccnc1`, the solubility was found to be 3.01 mM (≈ 620 µg/mL).

Turning to `NNC(=O)CC(=O)NN`, the solubility stood at 757 mM (≈ 100000 µg/mL).

`CCCCCCCCNC(=O)c1cccnc1` yielded a solubility of 0.982 mM (≈ 230 µg/mL).

For `C=CCOC(=O)C(C)OC(=O)C(C)O` (stereo not given), the solubility was 208 mM (≈ 42000 µg/mL).

On to `CCOc1ccccc1C=CC(=O)[O-]`, for which the solubility was 1.19 mM.

In turn, `CCc1c[nH]c(=O)[nH]c1=O` yielded a solubility of 11.4 mM (≈ 1600 µg/mL).

As to `Cc1ccc(S(C)(=O)=O)cc1`, the solubility was determined as 10.3 mM (≈ 1750 µg/mL).

`N#CNC(N)=S` showed a solubility of 989 mM (≈ 100000 µg/mL).

The compound `COC1CC1` displayed a solubility of 763 mM (≈ 55000 µg/mL).

The compound `Cn1cc([N+](=O)[O-])c(=O)[nH]c1=O` yielded a solubility of 10.1 mM (≈ 1720 µg/mL).

In turn, `COCCCl` gave a solubility of 846 mM (≈ 80000 µg/mL).

In turn, `CCCCOC(=O)CCOCC` displayed a solubility of 23 mM (≈ 4000 µg/mL).

In the case of `Nc1ccc2c(c1)C(=O)OC2`, the solubility worked out at 9.09 mM (≈ 1360 µg/mL).

The compound `CC1=C(C(=O)O)CCC1(C)C` had a solubility of 1.3 mM (≈ 200 µg/mL).

`CCCCN(C(N)=O)c1ccccc1` had a solubility of 50.5 mM (≈ 9700 µg/mL).

The compound `CC(C)C1CCC(=NO)C(=NO)C1` (stereo not given) gave a solubility of 4.07 mM (≈ 750 µg/mL).

Regarding `O=I(=O)c1ccccc1`, the solubility was found to be 14.4 mM (≈ 3400 µg/mL).

Consider `CC1(C)OC(=O)c2cc([N+](=O)[O-])ccc21`, for which the solubility turned out to be 0.888 mM (≈ 184 µg/mL).

For `CC1CCC(=NO)C(=NO)C1` (stereo not given), the solubility stood at 21.8 mM (≈ 3400 µg/mL).

The same data set, now with this note: 26 °C.
In turn, `N#CCCNC(CCC(=O)O)C(=O)O` (stereo not given) had a solubility of 49.9 mM (≈ 10000 µg/mL).

`O=C(S)CCCCC(=O)S` gave a solubility of 18.5 mM (≈ 3300 µg/mL).

Staying with this data set, now noted: 28 °C.
In turn, `NC(=O)NCO` registered a solubility of 451 mM (≈ 40600 µg/mL).

Still in this data set, the particulars now being: 30 °C.
Compound `O=C(O)CCCCCc1ccccc1` registered a solubility of 2.5 mM (≈ 480 µg/mL).

As for `CCCCn1cnc2c1c(=O)n(C)c(=O)n2C`, the solubility worked out at 15.6 mM (≈ 3690 µg/mL).

Compound `CCCCCCCCS(=O)(=O)NS(=O)(=O)CCCCCCCC` registered a solubility of 0.122 mM (≈ 45 µg/mL).

Consider `CC(=O)c1cccs1`, for which the solubility came to 111 mM (≈ 14000 µg/mL).

For `O=C(O)c1ccccc1C(=O)c1ccc(Br)cc1`, the solubility is 0.983 mM (≈ 300 µg/mL).
